In one data set the test system is Heliothis virescens. In words: Growth inhibition of neonate larvae of Heliothis virescens (tobacco budworm) at 250 mg/l after 6 days relative to control. Particulars: 144 h, read-out: GI. The data set is classed as functional.
The subject of a further data set is Manduca sexta. Put plainly: Growth inhibition of neonate larvae of Manduca sexta at 250 mg/l after 6 days relative to control. The data set is classed as functional. Particulars: 144 h, read-out: GI.
For another data set, the system named is Helicoverpa zea. In words: Growth inhibition of neonate larvae of Helicoverpa zea (corn earworm)at 250 mg/l after 6 days relative to control. Particulars: 144 h, read-out: GI. The data set is classed as functional.
Data set [1] has as its system Spodoptera frugiperda. Put plainly: Antifeedant activity against fourth-instar larvae of Spodoptera frugiperda (fall armyworm) fed on compound treated savanna grass for 18 hr. Type of data set: functional, organism-based.
Data set [2] has as its system Spodoptera frugiperda. In words: Phagostimulant activity in fourth-instar larvae of Spodoptera frugiperda (fall armyworm) fed on compound treated savanna grass for 18 hr. The data set is classed as ADME, organism-based. Particulars: in vivo, po.

SMILES strings stand for the structures. ≈ marks a conversion by molar mass, not a printed value. Bounds are passed on as bounds.

Turning to `C/C=C(\C)OC(=O)[C@H]1C(C)(C)[C@H]([C@@H](O)C(=O)OC)[C@]2(C)C(=O)[C@@]1(O)C=C1[C@@H]3CC(=O)O[C@@H](c4ccoc4)[C@]3(C)CC[C@@H]12` [2-HYDROXYSWIETENINE], the figures for the inhibition of growth at 250 µg/mL with Heliothis virescens, in the data set on Manduca sexta and in the data set with Helicoverpa zea were 62.6%, 31.7% and 28.2%, respectively. Also, the DC50 with Spodoptera frugiperda [1] is 65.8 mg/L (≈ 113 µM).

Turning to `COC(=O)[C@H](C(=O)Oc1ccccc1)[C@H]1C(C)(C)[C@H](C(=O)Oc2ccccc2)[C@@H]2C=C3[C@@H]4CC(=O)O[C@@H](c5ccoc5)[C@]4(C)CC[C@@H]3[C@@]1(C)C2=O` [3,6-O,O-DIBENZOYL-3-DETIGLOYLISOSWIETENINE], the inhibition of growth at 250 µg/mL stood at 18.6% in the data set on Heliothis virescens, 25.7% with Manduca sexta and 49.2% with Helicoverpa zea. Moreover, in the data set with Spodoptera frugiperda [2], the Activity entry is reported as “Toxic”.

The compound `COC(=O)[C@H](C(=O)Oc1ccccc1)[C@H]1C(C)(C)[C@H](C(=O)Oc2ccccc2)[C@@H]2CC3=C4CC(=O)O[C@@H](c5ccoc5)[C@]4(C)CC[C@@H]3[C@@]1(C)C2=O` [3,6-O,O-DIBENZOYLSWIETENOLIDE] gave a DC50 in the data set on Spodoptera frugiperda [1] of 416 mg/L (≈ 599 µM).

As for `CCOC(=O)[C@@H](C(=O)OC)[C@H]1C(C)(C)[C@H](C(=O)OCC)[C@]2(O)C=C3[C@@H]4CC(=O)O[C@@H](c5ccoc5)[C@]4(C)CC[C@@H]3[C@@]1(C)C2=O` [3,6-O,O-DIPROPIONYL-3-DETIGLOYL-2-HYDROXYISOSWIETENINE], the inhibition of growth at 250 µg/mL in the data set with Heliothis virescens was found to be 17.5%; in the data set with Manduca sexta it was 15.8%; in the data set on Helicoverpa zea, 32.7%. The compound also yielded a DC50 with Spodoptera frugiperda [1] of 159 mg/L (≈ 259 µM).

Take `COC(=O)[C@H](C(=O)Oc1ccccc1)[C@H]1C(C)(C)[C@H](C(=O)Oc2ccccc2)[C@]2(O)C=C3[C@@H]4CC(=O)O[C@@H](c5ccoc5)[C@]4(C)CC[C@@H]3[C@@]1(C)C2=O` [3,6-O,ODIBENZOYL-3-DETIGLOYL-2-HYDROXYISOSWIETENINE]: the inhibition of growth at 250 µg/mL in the data set with Heliothis virescens was 33.8%; in the data set on Manduca sexta, 6.24%; in the data set on Helicoverpa zea it was 13.5%. In addition, in the data set on Spodoptera frugiperda [1], the DC50 was determined as 233 mg/L (≈ 328 µM).

For the compound `COC(=O)[C@H](O)[C@H]1C(C)(C)[C@H](O)[C@]2(O)C=C3[C@@H]4CC(=O)O[C@@H](c5ccoc5)[C@]4(C)CC[C@@H]3[C@@]1(C)C2=O` [3-DETIGLOYL-2-HYDROXYISOSWIETENINE], the figures for the inhibition of growth at 250 µg/mL in the data set with Heliothis virescens, in the data set with Manduca sexta and in the data set on Helicoverpa zea were 15.8%, 29.2% and 22.4%, respectively. For the same compound, the DC50 with Spodoptera frugiperda [1] came out at 188 mg/L (≈ 374 µM).

With `COC(=O)C(O)[C@H]1C(C)(C)[C@@H](O)[C@@H]2C(=O)[C@]1(C)[C@H]1CC[C@]3(C)[C@@H](CC(=O)O[C@H]3c3ccoc3)[C@]13O[C@@H]23` (stereo partly specified) [3-DETIGLOYLISOSWIETEMAHONIN G], the inhibition of growth at 250 µg/mL with Heliothis virescens worked out at 49.1%; in the data set on Manduca sexta it was 45.1%; in the data set with Helicoverpa zea, 54.6%. In the data set on Spodoptera frugiperda [1], the DC50 amounted to 107 mg/L (≈ 213 µM).

Turning to `COC(=O)[C@H](O)[C@H]1C(C)(C)[C@H](O)[C@@H]2C=C3[C@@H]4CC(=O)O[C@@H](c5ccoc5)[C@]4(C)CC[C@@H]3[C@@]1(C)C2=O` [3-DETIGLOYLISOSWIETENINE], the inhibition of growth at 250 µg/mL in the data set on Heliothis virescens stood at 56%; in the data set with Manduca sexta, 17.8%; in the data set on Helicoverpa zea, 15.2%. In the data set on Spodoptera frugiperda [1], the DC50 is 101 mg/L (≈ 208 µM).

With `COC(=O)COC(=O)[C@@H]1[C@@H]2CC3=C4CC(=O)O[C@@H](c5ccoc5)[C@]4(C)CC[C@@H]3[C@@](C)(C2=O)[C@@H]([C@@H](O)C(=O)OC)C1(C)C` [3-O-ACETOXYACETYLSWIETENOLIDE], the inhibition of growth at 250 µg/mL in the data set with Heliothis virescens worked out at 19%; in the data set on Manduca sexta, 35.9%; in the data set on Helicoverpa zea, 30.2%. Moreover, the DC50 in the data set with Spodoptera frugiperda [1] is 12.4 mg/L (≈ 21.1 µM).

As for `COC(=O)[C@H](O)[C@H]1C(C)(C)[C@H](C(=O)Oc2ccccc2)[C@@H]2C=C3[C@@H]4CC(=O)O[C@@H](c5ccoc5)[C@]4(C)CC[C@@H]3[C@@]1(C)C2=O` [3-O-BENZOYL-3-DETIGLOYLISOSWIETENINE], the inhibition of growth at 250 µg/mL with Heliothis virescens is 57.8%; with Manduca sexta it was 8.18%; in the data set with Helicoverpa zea, 27.1%. In addition, the DC50 in the data set with Spodoptera frugiperda [1] was 254 mg/L (≈ 430 µM).

Turning to `COC(=O)[C@H](O)[C@H]1C(C)(C)[C@H](C(=O)Oc2ccccc2)[C@@H]2CC3=C4CC(=O)O[C@@H](c5ccoc5)[C@]4(C)CC[C@@H]3[C@@]1(C)C2=O` [3-O-BENZOYLSWIETENOLIDE], the DC50 in the data set with Spodoptera frugiperda [1] worked out at 244 mg/L (≈ 414 µM).

As for `COC(=O)[C@H](O)[C@H]1C(C)(C)[C@H](C(=O)OC(C)C)[C@@H]2CC3=C4CC(=O)O[C@@H](c5ccoc5)[C@]4(C)CC[C@@H]3[C@@]1(C)C2=O` [3-O-ISOBUTYRYLSWIETENOLIDE], the values for the inhibition of growth at 250 µg/mL in the data set with Heliothis virescens, in the data set with Manduca sexta and in the data set with Helicoverpa zea were 35.1%, 45.9% and 33.1%, respectively. In addition, in the data set on Spodoptera frugiperda [1], the DC50 was 0.009 mg/L (≈ 0.0162 µM).

With `COC(=O)[C@H](O)[C@H]1C(C)(C)[C@H](C(=O)OCC(C)C)[C@@H]2CC3=C4CC(=O)O[C@@H](c5ccoc5)[C@]4(C)CC[C@@H]3[C@@]1(C)C2=O` [3-O-ISOVALERYLSWIETENOLIDE], the inhibition of growth at 250 µg/mL with Heliothis virescens stood at 54.5%; in the data set on Manduca sexta it was 23.7%; with Helicoverpa zea, 26.2%. The compound also registered a DC50 in the data set with Spodoptera frugiperda [1] of 0.19 mg/L (≈ 0.333 µM).

For the compound `CCOC(=O)[C@@H]1[C@@H]2C=C3[C@@H]4CC(=O)O[C@@H](c5ccoc5)[C@]4(C)CC[C@@H]3[C@@](C)(C2=O)[C@@H]([C@@H](O)C(=O)OC)C1(C)C` [3-O-PROPIONYL-3-DETIGLOYLISOSWIETENINE], the inhibition of growth at 250 µg/mL in the data set on Heliothis virescens worked out at 32%; in the data set on Manduca sexta, 12.5%; with Helicoverpa zea, 13.5%. Further, the DC50 in the data set on Spodoptera frugiperda [1] was 81.9 mg/L (≈ 151 µM).

For the compound `CCOC(=O)[C@@H]1[C@@H]2CC3=C4CC(=O)O[C@@H](c5ccoc5)[C@]4(C)CC[C@@H]3[C@@](C)(C2=O)[C@@H]([C@@H](O)C(=O)OC)C1(C)C` [3-O-PROPIONYLSWIETENOLIDE], the inhibition of growth at 250 µg/mL amounted to 41.7% in the data set on Heliothis virescens, 18.3% in the data set with Manduca sexta and 16.6% in the data set on Helicoverpa zea. The DC50 in the data set with Spodoptera frugiperda [1] is 53.8 mg/L (≈ 99.1 µM).

Take `C/C=C(\C)OC(=O)[C@@H]1[C@@H]2C=C3[C@@H]4CC(=O)O[C@@H](c5ccoc5)[C@]4(C)CC[C@@H]3[C@@](C)(C2=O)[C@@H]([C@H](C(=O)OC)C(=O)Oc2ccccc2)C1(C)C` [6-O-BENZOYLSWIETENINE]: the inhibition of growth at 250 µg/mL worked out at 28.7% with Heliothis virescens, 32.8% in the data set with Manduca sexta and 10.2% in the data set on Helicoverpa zea. Moreover, the DC50 in the data set on Spodoptera frugiperda [1] is 406 mg/L (≈ 604 µM).

Turning to `COC(=O)[C@H](C(=O)Oc1ccccc1)[C@H]1C(C)(C)[C@H](O)[C@@H]2CC3=C4CC(=O)O[C@@H](c5ccoc5)[C@]4(C)CC[C@@H]3[C@@]1(C)C2=O` [6-O-BENZOYLSWIETENOLIDE], the figures for the inhibition of growth at 250 µg/mL with Heliothis virescens, with Manduca sexta and with Helicoverpa zea were 27.1%, 43.8% and 39.5%, respectively. Moreover, in the data set with Spodoptera frugiperda [1], the DC50 is 73.2 mg/L (≈ 124 µM).

Regarding `CCOC(=O)[C@@H](C(=O)OC)[C@H]1C(C)(C)[C@H](O)[C@@H]2CC3=C4CC(=O)O[C@@H](c5ccoc5)[C@]4(C)CC[C@@H]3[C@@]1(C)C2=O` [6-O-PROPIONYLSWIETENOLIDE], the inhibition of growth at 250 µg/mL in the data set on Heliothis virescens came to 62.6%; in the data set on Manduca sexta, 21.4%; in the data set with Helicoverpa zea, 27.1%. In addition, the DC50 in the data set on Spodoptera frugiperda [1] was found to be 57.1 mg/L (≈ 105 µM).

Consider `CC1(C)[C@H]([C@@H](O)C(=O)O)[C@]2(C)C(=O)[C@@](O)(C=C3[C@@H]4CC(=O)O[C@@H](c5ccoc5)[C@]4(C)CC[C@@H]32)[C@H]1O` [DEMETHYL-3-DETIGLOYL-2-HYDROXYISOSWIETENINE], for which the values for the inhibition of growth at 250 µg/mL in the data set on Heliothis virescens, in the data set with Manduca sexta and with Helicoverpa zea were 24.5%, 13.2% and 11.1%, respectively. This compound also yielded a DC50 in the data set with Spodoptera frugiperda [1] of more than 10000 mg/L.

For the compound `CC1(C)[C@H](O)[C@@H]2C=C3[C@@H]4CC(=O)O[C@@H](c5ccoc5)[C@]4(C)CC[C@@H]3[C@@](C)(C2=O)[C@H]1[C@@H](O)C(=O)O` [DEMETHYL-3-DETIGLOYLISOSWIETENINE], the results for the inhibition of growth at 250 µg/mL in the data set on Heliothis virescens, in the data set with Manduca sexta and in the data set on Helicoverpa zea were 10.2%, 14.1% and 21.6%, respectively. This compound also yielded a DC50 with Spodoptera frugiperda [1] of 214 mg/L (≈ 454 µM).

For the compound `CC1(C)[C@H](O)[C@@H]2CC3=C4CC(=O)O[C@@H](c5ccoc5)[C@]4(C)CC[C@@H]3[C@@](C)(C2=O)[C@H]1[C@@H](O)C(=O)OO` [DEMETHYLISOSWIETENOLIDE], the inhibition of growth at 250 µg/mL with Heliothis virescens came to 32.6%; in the data set on Manduca sexta, 9.01%; with Helicoverpa zea, 24%. This compound showed a DC50 with Spodoptera frugiperda [1] of 254 mg/L (≈ 520 µM).

For the compound `CCOC(=O)[C@@H](C(=O)OC)[C@H]1C(C)(C)[C@H](C(=O)OCC)[C@@H]2CC3=C4CC(=O)O[C@@H](c5ccoc5)[C@]4(C)CC[C@@H]3[C@@]1(C)C2=O` [O,O-DIPROPIONYLSWIETENOLIDE], the inhibition of growth at 250 µg/mL was found to be 52.7% in the data set with Heliothis virescens, 32.7% in the data set with Manduca sexta and 20.8% in the data set on Helicoverpa zea. In addition, in the data set with Spodoptera frugiperda [1], the DC50 was 45.5 mg/L (≈ 76 µM).

In the case of `C/C=C(\C)OC(=O)[C@H]1[C@@H]2C(=O)[C@](C)([C@H]3CC[C@]4(C)[C@@H](CC(=O)O[C@H]4c4ccoc4)[C@]34O[C@@H]24)[C@@H](C(O)C(=O)OC)C1(C)C` (stereo partly specified) [SWIETEMAHONIN G], the results for the inhibition of growth at 250 µg/mL with Heliothis virescens, with Manduca sexta and in the data set on Helicoverpa zea were 44.3%, 32.8% and 48.1%, respectively. Besides, the DC50 in the data set on Spodoptera frugiperda [1] came out at 13.8 mg/L (≈ 23.6 µM).

(Values after ChEMBL document CHEMBL3045353, “Identification of new limonoids from Swietenia and their biological activity against insects” (Pest Manag Sci, 2010).)
